Measurements: patent publication US8394775B2 (Amorepacific Corporation, priority 2005, dated 2013)
pIC50: −log10 of the molar value.

Assays:
[1] = tested on: pigment cells (Mel-Ab cell); assay: Inhibition of melanin synthesis using pigment cell of mouse; format: cell-based; settings: 10 ppm for continuous 3 days, non-treatment group given as 100.0
From the text: Here, hydroquinone was a positive control.

human skin = assay: Whitening effect on human skin after UV-induced darkening; format: in vivo; settings: 1% applied on UV-darkened upper arm skin, 10 weeks, colorimeter
Protocol: Firstly, 12 healthy males were enlisted for the test. They had opaque tape with a 1.5 cm hole attached on the upper arm. UV rays 1.5 to 2 times greater than the minimal erythema dose were irradiated to induce darkening of the skin.
For 10 weeks, the change was observed. Every 1 week, the color of the skin was measured by colorimeter CR2002 (Japan, Minolta)
Then, the difference of skin color (ΔL*) between the point when the application of the test material was initiated and the point when the application of the test material was completed was calculated according to the following equation and the result is shown in Table 7. Meanwhile, the whitening effect was determined by comparison of ΔL* between the sample applied part and the control. When ΔL* value is about 2, the whitening of the pigmentation was significant. When ΔL* is over 1.5, it was considered that the sample had whitening effect. ΔL*=(L*at the point when the application is completed)−(L*at the point when the application is initiated) [Equation 4]

[2] = tested on: Human keratinocytes HaCaT cell line; assay: Inhibition of reactive oxygen species (ROS) production using fluorescent material (DCFH-DA), UVB irradiation; format: cell-based; settings: HaCaT cells, UVB 30 mJ/cm^2, DCF fluorescence
Protocol: The cell lines used in the test was Human keratinocytes HaCaT cell line. The cells were distributed to a 96 well black plate for fluorescence measurement at 2.0×10^4 per each well and cultured in DMEM (Dulbeccos Modification of Eagles Medium, FBS 10%) supplemented with penicillin/streptomycin at 37° C., 5% CO2 for 1 day, followed by treatment with test samples. Serum free DMEM (FBS free) supplemented with penicillin/streptomycin as shown in Table 2 was used for cultivation of the medium which had been treated with samples. The cultivation was performed at 37° C., 5% CO2 for 1 day.
After cultivation of 24 hours with test samples, the plate was washed with HCSS (HEPES-buffered control salt solution) to remove the medium and the HCSS was treated with 100 μl of 20 μM DCFH-DA (2′,7′-dichlorodihydro-fluorescein diacetate, Molecular Probes, Inc). Then, the plate was kept under conditions of 37° C., 5% CO2 for 20 minutes and washed with HCSS. Next, the plate was treated with 100 μl of HCSS comprising samples at different concentrations and the fluorescence intensity of DCF (dichlorofluorescein), which had been oxidized […] at the early stage, was measured using a fluorescent plate reader (Ex=485 nm, Em=530 nm). The fluorescence, right after the irradiation of UVB (30 mJ/cm^2) or 3 hours later of the irradiation, was measured using a fluorescent plate reader (Ex=485 nm, Em=530 nm).
As control, Trolox was used.

collagenase = assay: Inhibition of collagenase expression in human fibroblasts; format: cell-based; settings: molar concentration of 10^−4, 24 hours, compared to 100 of the non-treatment group
Protocol: (§1) Firstly, human fibroblasts were seeded in a 96-well microtiter plate containing DMEM supplemented with 2.5% fetal bovine serum at a level of 5000 cells per well and cultured until they grew up to 90%.
Then, the culture fluid was examined for formation of collagenase using a commercially available collagenase measuring kit (Amorsham pharmacia, USA).
(§2) Firstly, the taken cell culture fluid was added to the 96-well plate having the primary collagenase antibody evenly applied and left for antigen-antibody reaction in a thermostat for 3 hours. After 3 hours, the secondary collagen antibody having a chromophore bonded thereto was added to the 96-well plate and left for reaction for 15 minutes. After 15 minutes, a color developing agent was added and left for 15 minutes. Then, 1M sulphuric acid was added to quit the reaction (color development), upon which the color of the reaction became yellow. The yellow level varied according to the progress of the reaction.
(§3) The absorption of the 96-well plate of the yellow color was measured at 405 nm using a spectrophotometer. The expression of collagenase was calculated according to the following Equation I. Here, the absorption of the control was the absorption of the cell culture fluid taken from the group which had not been treated with the test materials. Expression of collagenase (%) (A/B)×100 [Equation I] • (A: absorption of cells treated with the test materials B: absorption of control)
Meanwhile, the result of measurement of inhibition effect of the test materials on collagenase expression in human fibroblasts is shown in Table 4, in which in which the expression of collagenase is compared to 100 of the non-treatment group.

procollagen type (I) = assay: Promotion of collagen biosynthesis in fibroblasts (procollagen type (I) ELISA); format: cell-based; settings: 24 hours, compared to 100 of the non-treatment group
Protocol: Firstly, fibroblasts (PromoCell, Germany) were seeded in a 24 well plate at a level of 10^5 per well and cultured until they grew up to 90%. […] The supernatant was taken and examined for increase and decrease of procollagen using procollagen type (I) ELISA kit (proc/; ollagen type (I)). The result is shown in Table 3, in which the synthesis is compared to 100 of the non-treatment group.

elastase = assay: Inhibition of elastase expression in human fibroblasts; format: cell-based; settings: molar concentration of 10^−4, 24 hours, compared to 100 of the non-treatment group
Protocol: as §1
Then, the culture fluid was examined for formation of elastase using a commercially available elastase measuring kit (Amorsham pharmacia, USA).
as §2, with “elastase” for “collagenase”
as §3, with “elastase” for “collagenase”, “II.” for “I.”, “elastase (%)=(A/B)×100” for “collagenase (%) (A/B)×100”, “II]” for “I]”
Meanwhile, the result of measurement of inhibition effect of the test materials on elastase expression in human fibroblasts is shown in Table 5, in which the expression of elastase is compared to 100 of the non-treatment group.

[3] = DPPH test of anti-oxidant effect; format: biochemical; settings: read-out: DPPH analysis IC50 (concentration, upon which the absorption is decreased to 50%); 100 μM DPPH in ethanol, 37° C., 30 minutes, absorption at 540 nm
Protocol: A method for evaluating anti-oxidant effect through change of absorption generated by reduction of the organic radical DPPH (1,1-diphenyl-2-picryl hydrazyl) (while anti-oxidant is oxidized) is used. The change of absorption, which was decreased when the oxidization of DPPH was inhibited, was measured, as compared to the control.
The absorption was measured at 540 nm. The control sample was synthesized anti-oxidant Trolox, commonly used.

| Compound | Melanin content (% of untreated control) [1] | Whitening effect (ΔL*) (human skin) | Inhibition effect on ROS production (control %) ([2]; 6.25 uM) | Inhibition effect on ROS production (control %) ([2]; 12.5 uM) | Inhibition effect on ROS production (control %) ([2]; 25 uM) | Inhibition effect on ROS production (control %) ([2]; 50 uM) | Expression of collagenase (%) (collagenase) | Synthesis (%) of procollagen (procollagen type (I)) | Expression of elastase (%) (elastase) | pIC50 [3] | activity at 6.25 µM ([2]; Homo sapiens, light or radiation study, 6.25 uM, read-out: Inhibition effect on ROS production (control %)) | activity at 12.5 µM ([2]; Homo sapiens, light or radiation study, 12.5 uM, read-out: Inhibition effect on ROS production (control %)) | activity at 25 µM ([2]; Homo sapiens, light or radiation study, 25 uM, read-out: Inhibition effect on ROS production (control %)) | activity at 50 µM ([2]; Homo sapiens, light or radiation study, 50 uM, read-out: Inhibition effect on ROS production (control %)) |
| --- | --- | --- | --- | --- | --- | --- | --- | --- | --- | --- | --- | --- | --- | --- |
| Oc1ccc(O)cc1 [Hydroquinone, hydroquinone, reference compound] | 41.1% | 1.90 ± 0.11 | – | – | – | – | – | – | – | – | – | – | – | – |
| COc1ccc(-c2oc3c(CC=C(C)C)c(O[C@@H]4O[C@H](CO)[C@@H](O)[C@H](O)[C@H]4O)cc(O)c3c(=O)c2O[C@@H]2O[C@@H](C)[C@H](O)[C@@H](O)[C@H]2O)cc1 [Icariin] | 84.5% | 1.10 ± 0.13 | 98.1% | 89.7% | 88.6% | 86.3% | 81% | 117% | 87% | – | – | – | – | – |
| COc1ccc(-c2oc3c(CC=C(C)C)c(O)cc(O)c3c(=O)c2O[C@@H]2O[C@H](C)[C@@H](O)[C@H](O)[C@@H]2O)cc1 [Icariside II] | 38.2% | 1.83 ± 0.25 | 63.2% | 62.0% | 56.6% | 46.6% | 66% | 138% | 63% | 5.15 | – | – | – | – |
| Cc1c(C)c2c(c(C)c1O)CCC(C)(C(=O)O)O2 (stereo not shown) [Trolox, reference compound] | – | – | – | – | – | – | – | – | – | 5.06 | 76.9% | 74.6% | 73.3% | 58.5% |
| COc1ccc(-c2oc3c(CC=C(C)C)c(O)cc(O)c3c(=O)c2O)cc1 [Icaritin] | 39.5% | 1.89 ± 0.25 | 68.2% | 61.5% | 51.7% | 43.2% | 66% | 146% | 55% | 5.17 | – | – | – | – |
| O=C(O[C@@H]1Cc2c(O)cc(O)cc2O[C@@H]1c1cc(O)c(O)c(O)c1)c1cc(O)c(O)c(O)c1 [EGCG, reference compound] | – | – | – | – | – | – | 60% | 125% | 68% | – | – | – | – | – |
| tocopherol [reference compound] | – | – | – | – | – | – | 75% | 118% | 88% | – | – | – | – | – |
| COc1ccc(-c2oc3c(CC=C(C)C)c(O[C@@H]4O[C@H](CO)[C@@H](O)[C@H](O)[C@H]4O)cc(O)c3c(=O)c2O)cc1 [Icariside I] | 38.6% | 1.88 ± 0.17 | 65.6% | 61.4% | 54.8% | 43.8% | 64% | 145% | 56% | 5.11 | – | – | – | – |
